Assay results as given in patent US20080221074A1, “Drug Screen and Treatment Method” (priority 2006, published 2008).

Tests used:
[1] = system: human T lymphocytes (PBMC); experiment: human mixed lymphocyte reaction (MLR); type: cell-based; conditions: 300 nM or 30 nM
Description: Human mixed lymphocyte reaction (MLR). The capacity of 3β,16α-dihydroxy-17-oxoandrostane, 3β,17β-dihydroxy-16-oxoandrostane, 17α-ethynylandrost-5-ene-3β,7β,17β-triol, and 17β-aminoandrost-5-ene-3β-ol to affect antigen specific stimulation in which human T lymphocytes respond to a specific foreign antigen (major histocompatibility complex).
Blood samples were obtained from 3 (2 males, […]) fasting, healthy human volunteers of 23-31 years old. […] The subjects were bled between 9 and 10 AM to limit possible fluctuations in the circulating levels of hormones or cytokines that could have influenced the in vitro responses of their lymphocytes. Peripheral blood mononuclear cells (PBMC) were isolated by centrifugation on Ficoll-Hypaque (density 1.077, Biochrom AG, Berlin, Germany) gradients and resuspended in culture medium (RPMI 1640 supplemented with 2 mM L-glutamine, penicillin (100 U/mL) and streptomycin ([…]) (Invitrogen s.rl., Milan, Italy). Autologous (responder) inactivated plasma was used at 10%. Five hundred thousand responder PBMC (PBMCr) and 500,000 allogeneic irradiated (30 Gy) stimulator PBMC (PBMCs) were mixed at a ratio of 1:1 in 200 μL medium and cultured for 6 days in flat bottom 96 well plates (Nunc, Roskilde, Denmark) at a concentration of 300 nM or 30 nM for each of the 4 compounds. The compounds were dissolved in ethanol and then diluted to the desired concentration with culture medium leading to a final solution containing 0.01% of ethanol. This vehicle was used as control. Controls also included PBMCr and PBMCs cultured separately. During the last 8 hours of the culture period the PBMC were pulsed with […] [^3H] thymidine (Amersham, Milan, Italy). The cells were then harvested and radioactivity incorporation measured with a beta cell counter. The mean cpm of quadruplicate wells was calculated. Proliferation of T cells was expressed as a stimulation index: SI=cpm (PMBCs xPBMCr)/cpm (PBMCr)+cpm (PBMCs). Statistical analysis was performed using the Student's t test. The cpm obtained from quadruplicate of each test compound were compared to proliferative responses obtained in control PBMCr and PBMCs cultured in the presence of the vehicle. Differences were considered significant at p<0.05.

[2] = system: progressive ischemia after thermal injury of the ear; experiment: thermal injury model using mouse ear tissue; type: in vivo, Balb/c mice; conditions: injection in propylene glycol after burn
Protocol: A thermal injury model using mouse ear tissue was used to characterize compounds for their capacity to treat inflammation associated with thermal trauma. […] Groups of Balb/c mice, approximately nine weeks old were given an identifying mark and then divided into control and treated subgroups. The thickness of the ear to be immersed in hot water was recorded, and then the entire ear of the anesthetized mouse was dipped into 52° C. water for 24 seconds. Each mouse was returned to its cage after an injection of either the propylene glycol vehicle (control) or 100 mg of compound in propylene glycol. Ear swelling changes were monitored on individual mice at pre-burn, and at various times after thermal injury. Ear swelling changes were monitored on individual mice at pre-injury and at 1, 3, 6, 9,12, 18, 24 and 48 hours after thermal injury. Animals were treated with 100 mg of dehydroepiandrosterone (DHEA) dissolved in propylene glycol.

EAE = experiment: experimental allergic encephalomyelitis (EAE), PLP 139-151; type: in vivo, female SJL/J mice; conditions: 5 mg/kg daily oral gavage; through day 26
Description: Treatment of autoimmune neurodegeneration. Three compounds, 17β-aminoandrost-5-ene-3β-ol, 17β-dimethylaminoandrost-5-ene-3β-ol and 17β-methylaminoandrost-5-ene-3β-ol were characterized for their capacity to ameliorate experimental allergic encephalomyelitis (EAE) in mice. This demyelinating condition is extensively used as a model for multiple sclerosis in humans and for testing of new therapies for treating multiple sclerosis, e.g., B. F. Bebo Jr. et al., J. Neurosci. Res. 52:420-426 1998; R. R. Voskuhl et al., Neuroscientist, 7:258-270 2001; H. Offner et al., J. Neuroimmunol., 130:128-139 2002.
In this protocol, the compounds were administered to female SJL/J mice by oral gavage at the onset of disease symptoms. An antigen was used to initiate the EAE condition in the mice. […] Immunization with this peptide antigen initiates an autoimmune Thl mediated demyelinating disease of the central nervous system. The antigen was prepared by solid phase synthesis and purified by high-performance liquid chromatography. […] The immunization protocol was subcutaneous injection over four sites on the hind flank on day 0. After immunization. the mice were assessed daily for clinical signs of EAE using the following scale: 0=no clinical signs or symptoms; 1=limp tail; 2=mild hind limb weakness and limp tail; 3=moderate hind limb weakness and limp tail or mild ataxia; 4=severe hind limb weakness and mild forearm weakness with moderate ataxia; 5=paraplegia with no more than moderate forelimb weakness; 6=paraplegia with severe forelimb weakness or severe ataxia or moribund condition.
Mice in the vehicle control group began to show observable symptoms of EAE at about 10-11 days after immunization with the PLP antigen, which is typical for the EAE disease model. The animals were dosed daily with 17β-aminoandrost-5-ene-3β-ol, 17β-dimethylaminoandrost-5-ene-3β-ol or 17β-methylaminoandrost-5-ene-3β-ol by oral gavage beginning at day 1, which was 1 day after immunization.

NF-κB = experiment: inhibition of NF-κB activation in NF-κB-bla THP-1 cells after LPS stimulation; type: cell-based, human; conditions: Homo sapiens, THP-1
Description: Inhibition of NF-κB in vitro. […] Activation of NF-κB increases expression of a number of genes that mediate inflammation. This protocol used human THP-1 cells, which are human mononuclear blood cells with a monocyte phenotype. The cell line, referred to as NF-κB-bla THP-1, contained a β-lactamase reporter gene under the control of the NF-kB response element (Invitrogen, CellSensor™, product No. K1176). In this cell line, the β-lactamase reporter gene is stably integrated in the THP-1 cells. This cell line was used to detect agonists or antagonists of the NF-κB signaling pathway. These NF-κB-bla THP-1 cells respond to the presence of tumor necrosis factor alpha (TNFα) or bacterial lipopolysaccharide (LPS) by increased expression of the β-lactamase reporter gene. The level of β-lactamase enzyme activity was measured by fluorescence resonance energy transfer ratiometric detection. TNFα and LPS are both potent inflammation-inducing agents that activate NF-κB in THP1 cells. In this assay, compounds that decrease NF-κB activity, and thus β-lactamase, in the presence of TNFα or LPS are exerting an anti-inflammation activity.
The NF-κB-bla THP-1 cells were maintained by passaging or feeding as needed. […] The cells were plated at 20,000 cells/well in a 384-well Black-wall, clear bottom assay plates (Costar#3712-TC low fluorescence background plates) approximately 24 hours before adding either TNFα at 10 ng/mL or LPS at 0.2 ng/mL to activate NF-κB.
The assays were usually conducted 2-4 times for each compound and the values shown below are averages for each compound.

[3] = system: ionizing radiation exposure; experiment: survival after lethal total body irradiation (10 Gy); type: in vivo, female B6D2F1 mice
Protocol: Treatment of ionizing radiation exposure. The effect of selected F1Cs on survival of lethally-irradiated female B6D2F1 mice were compared to control animals treated with vehicle alone. […] For Group 4, test article was administered as a 50 μL volume, by intramuscular injection for three consecutive days. The formulation was a a suspension containing 0.1% w/v carboxymethyl-cellulose, 0.9% w/v sodium chloride and 0.05% v/v phenol. The formulations were agitated to uniformly resuspend the Fl C before syringing, and injected into animals within a few minutes of drawing into the syringe to prevent settling in the syringe.
The groups of animals were treated as follows. […] The number of surviving animals is shown for day 6, 7, 12 and 21.

[4] = system: insulin sensitivity in db/db diabetic mice; experiment: hyperinsulinemic-euglycemic clamp; type: in vivo; conditions: ^14C-2-deoxyglucose; p<0.05
Protocol: Glucose lowering in 8 week old db/db diabetic mice. The hyperinsulinemic-euglycemic clamp protocol was conducted to measure insulin sensitivity in vivo. In this procedure, insulin was administered to raise the insulin concentration while glucose was infused to maintain euglycemia or a fixed, normal blood glucose level (about 180 mg/dL). […] The objective of this protocol was to investigate characterize the capacity of 17α-ethynylandrost-5-ene-3β,7β,17β-triol and androst-5-ene-3β,7β,16α,17β-tetrol to ameliorate systemic insulin resistance and improve whole body glucose disposal in the hyperinsulinemic-euglycemic clamp model. The degree of skeletal muscle and hepatic insulin sensitivity and tissue specific glucose uptake were also assessed. The animals were dosed daily by oral gavage for 14 days. On Day 10 of treatment catheters were implanted in the carotid artery and jugular vein. On the day of the clamp (day 14) the compound was administered at 7:30 am.
Body weight and glucose concentration were assessed on day 0, 7 and day 14 of treatment. On day 14 a euglycemic hyperinsulinemic clamp was performed. Food was removed at 7:30 am at 10:30 a primed continuous infusion of [3-^3H]-glucose (0.05 μCi/min). A baseline blood sample was taken at 12:50 (−10 min) and at 1:00 (0 min) a euglycemic hyperinsulinemic clamp was initiated by administering 10 mU /kg/min of insulin. Glucose was infused at a variable rate to clamp the glucose concentration at ˜180 mg/dl. A bolus of [^14C]-2deoxyglucose was given at the end of the study to assess tissue specific glucose uptake. Plasma ^14C 2-deoxyglucose was assessed at 122, 125, 130, 135, 145 min. […]
Analysis was conducted as follows. Plasma samples were deproteinized with Ba(OH)2 (0.3 N) and ZnSO4 (0.3 N), dried and radioactivity was assessed on scintillation counter (Packard TRICARB 2900 TR, Meriden, Conn.). […] One supernatant was directly counted to determine radioactivity from both [14C] […] A second aliquot was treated with Ba(OH)2 and ZnSO4 to remove ^14C DGP and any tracer incorporated into glycogen and then counted to determine radioactivity from free [^14C]DG(2). [^14C]DGP was calculated as the difference between the two aliquots. […] Rg, an index of tissue specific glucose uptake was calculated as previously described (E.W. Kraegen et al., Am. J. Physiol., 248:E353-E362, 1985). Whole body glucose turnover was calculated as the ratio of the ^3H glucose infusion rate (dpm/kg/min) and arterial plasma glucose specific activity (dpm/mg). Endogenous glucose production was calculated as the difference between the whole body glucose turnover and the exogenous glucose infusion rate (R. N. Bergman et al., Endocr. Rev., 6:45-86, 1985).

## C[C@]12CC[C@H]3[C@@H](CCC4C[C@@H](O)CC[C@@]43C)[C@@H]1CC(=O)[C@@H]2O (stereo partly drawn) [3β,17β-dihydroxy-16-oxoandrostane]
[1]
  immune suppression (inhibition of the MLR): not appreciably immune suppressive

## C[C@]12CC[C@H](O)CC1=CC[C@@H]1[C@@H]2CC[C@]2(C)C(=O)[C@H](Br)C[C@@H]12 [16α-bromodehydroepiandrosterone]
[2]
  protection against progressive ischemia after thermal injury to the ear: protected treated animals against much of the ischemic consequences

## C[C@]12CC[C@H](O)CC1=CC[C@@H]1[C@@H]2CC[C@]2(C)C(=O)[C@H](Cl)C[C@@H]12 [16α-chlorodehydroepiandrosterone]
[2]
  protection against progressive ischemia after thermal injury to the ear: only slightly protective

## C[C@]12CC[C@H](O)CC1=CC[C@@H]1[C@@H]2CC[C@]2(C)C(=O)[C@H](O)C[C@@H]12 [16α-hydroxydehydroepiandrosterone]
[2]
  protection against progressive ischemia after thermal injury to the ear: less protective

## CN(C)[C@H]1CC[C@H]2[C@@H]3CC=C4C[C@@H](O)CC[C@]4(C)[C@H]3CC[C@]12C [17β-dimethylaminoandrost-5-ene-3β-ol]
EAE
  clinical severity of EAE symptoms: reduced the clinical severity

## CN[C@H]1CC[C@H]2[C@@H]3CC=C4C[C@@H](O)CC[C@]4(C)[C@H]3CC[C@]12C [17β-methylaminoandrost-5-ene-3β-ol]
EAE
  clinical severity of EAE symptoms: reduced the clinical severity

## C[C@]12CC[C@H]3[C@@H](CC=C4C[C@@H](O)CC[C@@]43C)[C@@H]1CC[C@@H]2O [androst-5-ene-3β,17β-diol]
NF-κB
  IC50: 14 pM
[3]; 0.6 mg i.m. daily for 3 days, day 6
  number of surviving animals (groups of 12): 12
[3]; 0.6 mg i.m. daily for 3 days, day 7
  number of surviving animals (groups of 12): 12
[3]; 0.6 mg i.m. daily for 3 days, day 12
  number of surviving animals (groups of 12): 11
[3]; 0.6 mg i.m. daily for 3 days, day 21
  number of surviving animals (groups of 12): 9
[3]; 0.6 mg s.c. daily for 3 days, day 6
  number of surviving animals (groups of 12): 12
[3]; 0.6 mg s.c. daily for 3 days, day 7
  number of surviving animals (groups of 12): 11
[3]; 0.6 mg s.c. daily for 3 days, day 12
  number of surviving animals (groups of 12): 10
[3]; 0.6 mg s.c. daily for 3 days, day 21
  number of surviving animals (groups of 12): 7
[3]; 3.0 mg s.c. daily for 3 days, day 6
  number of surviving animals (groups of 12): 12
[3]; 3.0 mg s.c. daily for 3 days, day 7
  number of surviving animals (groups of 12): 12
[3]; 3.0 mg s.c. daily for 3 days, day 12
  number of surviving animals (groups of 12): 9
[3]; 3.0 mg s.c. daily for 3 days, day 21
  number of surviving animals (groups of 12): 7
[2]
  protection against progressive ischemia after thermal injury to the ear: protected treated animals against much of the ischemic consequences

## CN(CCOc1ccc(CC2SC(=O)NC2=O)cc1)c1ccccn1.O=C(O)/C=C\C(=O)O (stereo not drawn) [rosiglitazone, rosiglitazone maleate, reference compound]
[4]
  glucose uptake in the gastrocnemius muscle: more effective
